Data reported in patent US20220386606A1, “SPECIFICALLY SUBSTITUTED 3-PHENYL-5-SPIROCYCLOPENTYL-3-PYRROLIN-2-ONES AND THEIR USE AS HERBICIDES” (Bayer Aktiengesellschaft, priority 2019, published 2022).

Tests used:
VIOTR = assay: Pre-emergence herbicidal action against VIOTR; format: in vivo, Viola tricolor; conditions: 320 g/ha
Summary of the method: (§1)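 Sandy loam, wood-fiber pots, seeds covered with soil. Spray onto soil surface: aqueous WP/EC, 600 to 800 L/ha, 0.2% wetting agent. Greenhouse 3 weeks; visual % score vs untreated controls.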

ABUTH = assay: Post-emergence herbicidal action against ABUTH; format: in vivo, Abutylon threophrasti; conditions: 80 g/ha, visual assessment about 3 weeks after treatment vs untreated controls
Procedure: Seeds of monocotyledonous and dicotyledonous weed and crop plants are laid out in sandy loam soil in wood-fiber pots, covered with soil and cultivated in a greenhouse under good growth conditions. 2 to 3 weeks after sowing, the test plants are treated at the one-leaf stage. The compounds of the invention, formulated in the form of wettable powders (WP) or as emulsion concentrates (EC), are then sprayed onto the green parts of the plants as aqueous suspension or emulsion at a water application rate equating to 600 to 800 l/ha with addition of 0.2% wetting agent. After the test plants have been left to stand in the greenhouse under optimal growth conditions for about 3 weeks, the action of the preparations is assessed visually in comparison to untreated controls (herbicidal action in percent (%): 100% activity=the plants have died, 0% activity=like control plants).

ALOMY [1] = assay: Pre-emergence herbicidal action against ALOMY; format: in vivo, Alopecurus myosuroides; conditions: 320 g/ha, scored visually after 3 weeks vs untreated controls
Summary of the method: as §1

ECHCG [2] = assay: Post-emergence herbicidal action against ECHCG; format: in vivo, Echinochloa crus-galli; conditions: 80 g/ha, visual assessment about 3 weeks after treatment vs untreated controls
Summary of the method: (§2)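 Greenhouse post-emergence test; one-leaf stage (2–3 wk post-sowing), sandy loam. Spray: WP/EC in water, 600–800 l/ha, 0.2% wetting agent, onto green parts. Visual rating ~3 wk later, % vs untreated (100% = dead, 0% = like control).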

MATIN = assay: Pre-emergence herbicidal action against MATIN; format: in vivo; conditions: 320 g/ha
Source text: (§3) Seeds of monocotyledonous and dicotyledonous weed plants and crop plants are laid out in sandy loam soil in wood-fiber pots and covered with soil. The compounds of the invention, formulated in the form of wettable powders (WP) or as emulsion concentrates (EC), are then applied to the surface of the covering soil as aqueous suspension or emulsion at a water application rate equating to 600 to 800 L/ha with addition of 0.2% wetting agent.
(§4) After the treatment, the pots are placed in a greenhouse and kept under good growth conditions for the trial plants. The damage to the test plants is scored visually after a test period of 3 weeks by comparison with untreated controls (herbicidal activity in percent (%): 100% activity=the plants have died, 0% activity=like control plants).

LOLRI [3] = assay: Pre-emergence herbicidal action against LOLRI (Table 8, titled post-emergence at 320 g/ha); format: in vivo, Lolium rigidum; conditions: table stands in the pre-emergence section
Summary of the method: as §1

SETVI [4] = assay: Pre-emergence herbicidal action against SETVI; format: in vivo, Setaria viridis; conditions: 320 g/ha, scored visually after 3 weeks vs untreated controls
Summary of the method: as §1

DIGSA [5] = assay: Post-emergence herbicidal action against DIGSA; format: in vivo, Digitaria sanguinalis; conditions: 80 g/ha, visual assessment about 3 weeks after treatment vs untreated controls
Summary of the method: as §2

DIGSA [6] = assay: Pre-emergence herbicidal action against DIGSA; format: in vivo, Digitaria sanguinalis; conditions: 320 g/ha, scored visually after 3 weeks vs untreated controls
Summary of the method: as §1

LOLRI [7] = assay: Post-emergence herbicidal action against LOLRI; format: in vivo, Lolium rigidum; conditions: 80 g/ha, visual assessment about 3 weeks after treatment vs untreated controls
Summary of the method: as §2

AMARE = assay: Pre-emergence herbicidal action against AMARE; format: in vivo, Amaranthus retroflexus; conditions: 320 g/ha
Summary of the method: as §1

AVEFA [8] = assay: Pre-emergence herbicidal action against AVEFA; format: in vivo, Avena fatua; conditions: 320 g/ha, scored visually after 3 weeks vs untreated controls
Summary of the method: as §1

ALOMY [9] = assay: Post-emergence herbicidal action against ALOMY; format: in vivo, Alopecurus myosuroides; conditions: 80 g/ha, visual assessment after about 3 weeks
Summary of the method: as §2

SETVI [10] = assay: Post-emergence herbicidal action against SETVI; format: in vivo, Setaria viridis; conditions: 80 g/ha, visual assessment about 3 weeks after treatment vs untreated controls
Summary of the method: as §2

VERPE = assay: Pre-emergence herbicidal action against VERPE; format: in vivo, Veronica persica; conditions: 320 g/ha
Summary of the method: as §1

ECHCG [11] = assay: Pre-emergence herbicidal action against ECHCG; format: in vivo, Echinochloa crus-galli; conditions: 320 g/ha, scored visually after 3 weeks vs untreated controls
Summary of the method: as §1

POLCO = assay: Pre-emergence herbicidal action against POLCO; format: in vivo, Polygonum convolvulus; conditions: 320 g/ha
Source text: as §3, §4

AVEFA [12] = assay: Post-emergence herbicidal action against AVEFA; format: in vivo, Avena fatua; conditions: 80 g/ha, visual assessment after about 3 weeks
Summary of the method: as §2

| Compound | Pre-emergence action against VIOTR in % (VIOTR) [%] | Post-emergence action against ABUTH in % (ABUTH) [%] | Pre-emergence action against ALOMY in % (ALOMY [1]) [%] | Post-emergence action against ECHCG in % (ECHCG [2]) [%] | Pre-emergence action against MATIN in % (MATIN) [%] | Pre-emergence herbicidal action against LOLRI in % (LOLRI [3]) [%] | Pre-emergence action against SETVI in % (SETVI [4]) [%] | Post-emergence action against DIGSA in % (DIGSA [5]) [%] | Pre-emergence action against DIGSA in % (DIGSA [6]) [%] | Post-emergence action against LOLRI in % (LOLRI [7]) [%] | Pre-emergence action against AMARE in % (AMARE) [%] | Pre-emergence action against AVEFA in % (AVEFA [8]) [%] | Post-emergence action against ALOMY in % (ALOMY [9]) [%] | Post-emergence action against SETVI in % (SETVI [10]) [%] | Pre-emergence action against VERPE in % (VERPE) [%] | Pre-emergence action against ECHCG in % (ECHCG [11]) [%] | Pre-emergence action against POLCO in % (POLCO) [%] | Post-emergence action against AVEFA in % (AVEFA [12]) [%] |
| --- | --- | --- | --- | --- | --- | --- | --- | --- | --- | --- | --- | --- | --- | --- | --- | --- | --- | --- |
| CC#Cc1cc(Br)c(C2=C(OC(=O)C(C)C)C3(CCC(COC)C3)NC2=O)c(OC)c1 (stereo not drawn) [Example P-04] | 100 | 80 | 100 | 100 | 90 | 100 | 100 | 100 | 100 | 100 | 80 | 100 | 100 | 100 | 90 | – | – | – |
| CC#Cc1cc(Br)c(C2=C(OC(=O)C(C)C)C3(CCC(COCC)C3)NC2=O)c(OC)c1 (stereo not drawn) [Example P-23] | 100 | 80 | 100 | 100 | – | 100 | 100 | 100 | 100 | 90 | 90 | 100 | 100 | 100 | 90 | 100 | – | – |
| C=CCOCC1CCC2(C1)NC(=O)C(c1c(C)cc(C#CC)cc1Br)=C2O (stereo not drawn) [Example I-70] | 100 | – | 100 | 100 | 80 | 100 | 100 | 90 | 100 | 90 | – | 100 | 90 | 100 | – | 100 | 80 | – |
| CC#Cc1cc(C)c(C2=C(OC(=O)OCC)C3(CCC(COCC)C3)NC2=O)c(F)c1 (stereo not drawn) [Example P-53] | 80 | 80 | 100 | 100 | 90 | 100 | 100 | 100 | 100 | 100 | – | 90 | 100 | – | – | 100 | – | 90 |
| CC#Cc1cc(F)c(C2=C(O)C3(CCC(COCC)C3)NC2=O)c(OC)c1 (stereo not drawn) [Example I-42] | 80 | 80 | – | 100 | 80 | 100 | 100 | 100 | 100 | 90 | – | 90 | 90 | 100 | – | 80 | – | 90 |
| CC#Cc1cc(Br)c(C2=C(OC(=O)OCC)C3(CCC(COCC)C3)NC2=O)c(OCC)c1 (stereo not drawn) [Example P-89] | 80 | – | 100 | 100 | – | 100 | 100 | 90 | 100 | 90 | – | 100 | 100 | 100 | – | 100 | 100 | – |
| CC#Cc1cc(Br)c(C2=C(O)C3(CCC(COC)C3)NC2=O)c(OCC)c1 (stereo not drawn) [Example I-69] | 90 | – | 100 | 100 | – | 100 | 100 | 90 | 100 | 100 | – | 90 | 100 | – | 80 | 100 | 100 | – |
| CC#Cc1cc(C)c(C2=C(OC(=O)OCC)C3(CCC(COCCOC)C3)NC2=O)c(Cl)c1 (stereo not drawn) [Example P-76] | 100 | – | 100 | 100 | – | 100 | 100 | 90 | 100 | 100 | 100 | 100 | 100 | 100 | 100 | 100 | 100 | 90 |
